What was measured:
[1] = biological target: T1, Human Vitronectin receptor (av b3) (Homo sapiens, UniProt P05106+P06756); test: Human Vitronectin-Vitronectin Receptor (av b3) ELISA Assay (Vn/VnR); format: binding; settings: Example 30, G # table
T1 construct: is purified from human placenta; from tissue; host or cells: human placenta
Text: Human vitronectin (Vn) is isolated from human plasma and purified by affinity chromatography by the method of Yatohgo et. al., (Cell Structure and Function 13: 281-292 [1988]).
Human vitronection receptor (VnR) is purified from human placenta by the method of Pytela et al., (Methods Enzymol., 144: 475 [1987]). Alternatively the av b3 receptor can be purified from some cell lines (e.g., human embryonic kidney 293 cells) transfected with DNA sequences for both the av and b3 subunits. The subunits are purified by employing octylglucoside extraction followed by Con-A, Heparin-Sepharose, and S-300 Chromatography.
This mouse Mab is specific for the b3 subunit of the vitronectin receptor.
Rabbit Fab 2 anti-mouse Fc fragment horse radish peroxidase conjugate (anti-MuFc HRP) is obtained from PelFreeze (cat. no. 715305-1).
Maxisorp microtiter plates are coated with 2 mg/ml human vitronectin dissolved in PBS (50 ml/well) and stored overnight at 4° C. The plates are washed two times with PBS-0.05% Tween-20 (wash buffer) and blocked by incubating with about 150 ml/well of assay buffer (1%, BSA [RIA grade or better] in 50 mM Tris-HCl, 100 mM NaCl, 1 mM MgCl2, CaCl2, MnCl2 pH 7.4) for 60 minutes. […] The blocked plates are emptied and 25 ml/well of inhibitor or standard solution is added to each well. Twenty-five ml of a 30 mg/ml solution of purified av b3 in assay buffer is pipetted into the coated plate. The final concentration of receptor in the assay well is about 15 mg/ml. The plate is incubated on a shaker for 60 minutes. Meanwhile, for each microtite plate, 6 ml buffer solution containing 1.5 mg/ml of mouse monoclonal antibody specific for b3 is prepared. To this solution is added ml of the secondary antibody, which is anti-mouse-Fc-HRP antibody conjugate. For example, for one plate, prepare 6 ml of a 1.5 mg/ml mouse Mab solution to which is added 1 ml of anti-mouse-Fc-HRP antibody stock, (this represents a 1:6000 dilution of the antibody-HRP conjugate). This mixture is allowed to incubate during the receptor-inhibitor incubation. The assay plates are washed 4 times with PBS-Tween and 50 ml/well of the antibody mixture is then pipetted into the plate for a 60 minute incubation. The plate is washed 4 times and the color reaction is developed with 50 ml/well of 0.67 mg/ml o-phenyldiamine in PBS containing 0.012% H2 O2. Alternatively, 16 mM citric acid, 50 mM Na2 PO4 at pH 5.0 can be used as a substrate buffer. The reaction is stopped with 50 ml/well 1 M H2 SO4. The plates are read at 492-405 nm and the data analyzed by four-parameter fit.

GP IIb IIIa [2] = biological target: T2, GP IIb IIIa (Homo sapiens, UniProt P05106+P08514); test: GP IIb IIIa -von Willebrand factor (vWF) ELISA Assay (vWF/IIbIIIa); format: binding; settings: Example 30, G # table
T2 construct: from tissue; host or cells: outdated human platelets
Protocol: Microtiter plates are coated with 1.0 mg/ml GP IIb IIIa, prepared by the method of Fitzgerald et al., (Anal. Biochem. 151: 169-177 [1985]) and allowed to incubate overnight in coat buffer. The plates are then washed three times in wash buffer (0.05% Tween 20 in PBS) and 150 ml of assay buffer is added and allowed to incubate for 1-2 hours at room temperature on plate shaker. […] Fifty ml of 4.0 mg/ml vWF (prepared as described by Ledford et al., Thrombosis and Haemostasis, 64(4): 569-575 ]1990]) in assay buffer is then added and allowed to incubate for one hour at room temperature on plate-shaker. The plates are washed three times and the antibody mixture is added (1:5000 of mouse anti-vWF and 1:5000 of rabbit-anti-mouse-Fc-HRP, both commercially available) in assay buffer and incubated for 1 hour at room temperature on plate-shaker. […] The color change of OPD/H2 O2 reagent is read at 492 nm with a 405 nm reference wavelength on the filter photometer.

[3] = system: human platelet rich plasma (PRP); test: In Vitro Human Platelet Aggregation Assay (PA); format: cell-based; settings: Homo sapiens, Platelet, citrate; read-out: PA IC50 (μM) (citrate)
Method in brief: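 Human platelet rich plasma (PRP) was obtained by centrifuging blood at 160×g for 10 min at 22° C., letting it stand 5 min, and decanting. Platelet poor plasma from a 2000×g, 25 min spin was used to bring PRP to about 300,000 platelets per microliter. […] test dilution or PBS control was incubated 5 min at 25° C. in a Chrono-log Whole Blood Aggregometer. Aggregation was then triggered with collagen (1 mg/ml), U46619 (100 ng/ml) or ADP and recorded.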

GP IIb IIIa [4] = biological target: T2, GP IIb IIIa; test: Fibrinogen-GP IIb IIIa Receptor ELISA Binding Assay (Fg/IIbIIIa)
Method in brief: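 Purified human platelet GP IIb IIIa binding to immobilised purified fibrinogen was run with compound at room temperature for 1 h. IC50 values were determined.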

T2 sequence (P08514 32-887 limits assumed): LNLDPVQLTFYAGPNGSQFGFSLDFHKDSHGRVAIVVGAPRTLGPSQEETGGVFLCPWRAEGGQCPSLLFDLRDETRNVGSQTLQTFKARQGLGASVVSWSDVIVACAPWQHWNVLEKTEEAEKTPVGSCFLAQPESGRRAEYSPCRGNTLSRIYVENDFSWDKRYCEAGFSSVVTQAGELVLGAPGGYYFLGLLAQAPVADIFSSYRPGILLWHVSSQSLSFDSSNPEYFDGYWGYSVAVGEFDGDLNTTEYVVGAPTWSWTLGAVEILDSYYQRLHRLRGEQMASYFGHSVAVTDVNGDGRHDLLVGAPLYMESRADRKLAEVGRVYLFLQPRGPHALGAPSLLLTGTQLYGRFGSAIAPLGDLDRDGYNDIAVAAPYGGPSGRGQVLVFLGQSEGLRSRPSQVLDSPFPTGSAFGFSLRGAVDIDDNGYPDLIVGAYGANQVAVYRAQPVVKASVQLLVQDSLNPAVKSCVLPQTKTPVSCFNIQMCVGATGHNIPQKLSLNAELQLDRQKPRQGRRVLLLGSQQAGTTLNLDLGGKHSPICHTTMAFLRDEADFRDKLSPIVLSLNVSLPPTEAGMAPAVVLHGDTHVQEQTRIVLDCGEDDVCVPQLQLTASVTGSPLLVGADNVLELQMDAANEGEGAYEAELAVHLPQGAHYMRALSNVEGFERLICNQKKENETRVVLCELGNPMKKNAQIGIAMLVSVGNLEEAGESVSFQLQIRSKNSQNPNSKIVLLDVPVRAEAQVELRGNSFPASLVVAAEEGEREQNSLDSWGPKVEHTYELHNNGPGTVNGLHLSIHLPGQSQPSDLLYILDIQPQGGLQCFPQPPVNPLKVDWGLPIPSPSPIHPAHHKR
T2 sequence (P08514 891-1039 partner limits assumed): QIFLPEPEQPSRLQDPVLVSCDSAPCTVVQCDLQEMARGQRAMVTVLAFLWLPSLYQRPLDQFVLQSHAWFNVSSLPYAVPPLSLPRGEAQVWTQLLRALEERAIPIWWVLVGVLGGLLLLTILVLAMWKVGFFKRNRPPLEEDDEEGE
T2 sequence (P05106 27-788): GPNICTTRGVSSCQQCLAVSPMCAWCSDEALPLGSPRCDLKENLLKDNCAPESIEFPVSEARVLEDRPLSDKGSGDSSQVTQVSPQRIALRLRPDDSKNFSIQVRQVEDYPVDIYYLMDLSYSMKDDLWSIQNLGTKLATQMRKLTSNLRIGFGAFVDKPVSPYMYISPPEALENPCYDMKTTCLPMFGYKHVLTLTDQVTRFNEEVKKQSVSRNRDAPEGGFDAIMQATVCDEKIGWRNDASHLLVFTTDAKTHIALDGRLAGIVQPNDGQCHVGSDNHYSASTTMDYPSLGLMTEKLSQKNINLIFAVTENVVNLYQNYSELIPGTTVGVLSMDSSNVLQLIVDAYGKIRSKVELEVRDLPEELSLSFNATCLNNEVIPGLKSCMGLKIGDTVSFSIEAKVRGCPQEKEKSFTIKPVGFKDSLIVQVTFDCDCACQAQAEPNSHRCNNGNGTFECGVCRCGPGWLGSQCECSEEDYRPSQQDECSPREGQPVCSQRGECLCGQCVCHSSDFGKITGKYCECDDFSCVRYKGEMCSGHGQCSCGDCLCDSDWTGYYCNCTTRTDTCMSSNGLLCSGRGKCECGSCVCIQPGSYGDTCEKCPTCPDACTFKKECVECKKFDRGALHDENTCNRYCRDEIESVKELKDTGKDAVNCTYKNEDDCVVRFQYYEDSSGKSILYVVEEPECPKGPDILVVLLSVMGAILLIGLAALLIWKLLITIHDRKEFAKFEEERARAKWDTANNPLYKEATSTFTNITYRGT
T1 sequence (P06756 31-889 limits assumed): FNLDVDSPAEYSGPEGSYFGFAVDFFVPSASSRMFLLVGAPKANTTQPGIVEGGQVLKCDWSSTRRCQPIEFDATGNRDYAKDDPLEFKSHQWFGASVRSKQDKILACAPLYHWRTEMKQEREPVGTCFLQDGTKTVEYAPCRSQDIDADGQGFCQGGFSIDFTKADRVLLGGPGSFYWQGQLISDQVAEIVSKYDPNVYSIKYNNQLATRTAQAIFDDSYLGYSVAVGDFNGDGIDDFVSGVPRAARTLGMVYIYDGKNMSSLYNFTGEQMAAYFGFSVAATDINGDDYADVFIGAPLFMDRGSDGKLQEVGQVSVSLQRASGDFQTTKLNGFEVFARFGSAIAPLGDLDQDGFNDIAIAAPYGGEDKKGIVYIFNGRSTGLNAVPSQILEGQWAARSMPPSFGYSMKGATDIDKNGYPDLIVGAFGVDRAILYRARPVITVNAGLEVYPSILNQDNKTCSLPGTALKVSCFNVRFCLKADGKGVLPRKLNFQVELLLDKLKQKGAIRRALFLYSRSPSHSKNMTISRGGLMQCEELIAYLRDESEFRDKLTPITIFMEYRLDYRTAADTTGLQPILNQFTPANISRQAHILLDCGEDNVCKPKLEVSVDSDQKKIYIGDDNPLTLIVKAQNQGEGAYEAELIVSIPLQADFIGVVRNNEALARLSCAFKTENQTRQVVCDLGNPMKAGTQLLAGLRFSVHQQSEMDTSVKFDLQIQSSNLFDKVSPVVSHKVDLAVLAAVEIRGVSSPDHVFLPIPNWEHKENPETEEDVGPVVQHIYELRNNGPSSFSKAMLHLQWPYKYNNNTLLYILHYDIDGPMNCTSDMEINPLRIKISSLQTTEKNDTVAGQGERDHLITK
T1 sequence (P06756 891-1048 partner limits assumed): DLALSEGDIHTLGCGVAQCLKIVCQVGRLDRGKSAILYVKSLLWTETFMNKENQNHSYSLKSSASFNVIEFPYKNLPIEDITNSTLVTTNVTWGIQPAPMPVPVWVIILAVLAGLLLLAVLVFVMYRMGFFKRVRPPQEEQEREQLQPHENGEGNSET
T1 sequence (P05106 27-788): as the sequence (P05106 27-788) above

**Q.** `N=C(N)NCCCC#Cc1ccc2c(c1)C(=O)N(CCC(=O)O)CC(=O)N2Cc1cccc([N+](=O)[O-])c1` [Cmpd 36, 1-(3-nitrobenzyl)-4-(2-carboxyethyl)-7-(5-guanidino-1-pentynyl)-3,4-dihydro-1H-1,4-benzodiazepine-2,5-dione trifluroacetate] was tested. Which IC50 [1] did it give?
**A.** The IC50 was 3 µM.

**Q.** And the IC50 (GP IIb IIIa [2])?
**A.** Its IC50 is 0.0004 µM.

**Q.** What about the IC50 [3] of the same compound?
**A.** Its IC50 is 0.94 µM.

**Q.** What about the IC50 (GP IIb IIIa [4]; Example 29, Cmpd # 1-105, read-out: IC50 Fg/IIbI) of the same compound?
**A.** Its IC50 is 0.0032 µM.

**Q.** And the IC50 (GP IIb IIIa [4]; Example 30, G # table, read-out: IC50 (μM) Fg/IIbIIIa)?
**A.** The IC50 was 0.0032 µM.

Source: patent US5250679A, “Nonpeptidyl platelet aggregation inhibitors having specificity for the GPIIb III receptor” (Genentech, Inc., priority 1992, dated 1993)
